Measured values reported in patent US12109224B2, “USB1 directed regulation of miRNAs related hematopoietic differentiation and affected in multiple forms of leukemia” (The Regents of the University of Colorado, a body corporate, priority 2020, dated 2024).

Columns and labels:
Assay type in all cases: cell-based, human
[1] = tested on: USB1 mutant cells; assay: Colony forming culture (CFC) assay of definitive hematopoietic progenitors; settings: chemical inhibition of PAPD5; RG7834 0.5 μM vs DMSO; FIG. 4E
Procedure: (§1) Hematopoietic differentiation: Definitive hematopoietic differentiation from hESCs was performed as previously described (14). Briefly, hESCs were cultured on Matrigel (BD Bioscience) for 1 day to deplete MEFs. On Day 0, cells were dissociated with 0.05% trypsin (Gibco) for 1 min and incubated with serumfree media [SFD: IMDM supplemented with 25% Hams F12, 0.05% BSA, 1× B27 supplement (Gibco), 0.5× N2 supplement (Gibco), 2 mM L-glutamine (Gibco), 50 μg/ml ascorbic acid (Gibco), 4×10−4 M monothioglycerol (Millipore Sigma), and 150 μg/ml transferrin] supplemented with 10 ng/ml BMP4 on 6 well plates coated with a 5% poly(2-hydroxyethyl methacrylate) solution (Millipore Sigma). On Day 1, one additional volume of SFD was added, containing 10 ng/ml BMP4 and 5 ng/ml bFGF. On Day 2, media was changed to fresh SFD supplemented with 10 ng/ml BMP4, 5 ng/ml bFGF, 3 μM CHIR99021, and 6 μM SB-431542. On Day 3, media was changed to StemPro-34 media [SP-34: StemPro-34 supplemented with 2 mM L-glutamine (Gibco), 1 mM ascorbic acid (Gibco), 4×10−4M monothioglycerol, 150 μg/ml transferrin] supplemented with 15 ng/ml VEGF and 5 ng/ml bFGF. On Day 6, one additional volume of SP-34 supplemented with 15 ng/ml VEGF, 5 ng/ml bFGF, 20 ng/ml IL-6, 50 ng/ml IGF1, 10 ng/ml IL-11, 200 ng/ml SCF, and 4 IU EPO was added. […]

[2] = tested on: USB1 mutant cells; assay: Flow cytometry following neutrophil differentiation; settings: CD45+CD14-CD11b+CD16 cells; FIG. 4F
Procedure: Flow cytometry and Cell sorting: Flow cytometry analysis was performed using the BD LSR Fortessa and FACS sorting by BD FACS Aria II at the Department of Pathology & Immunology Flow Cytometry Core at Washington University in St. Louis. The antibodies were used as follows; KDR (clone 89106), CD235a-APC (clone HIR2), CD34-APC (clone 8G12), CD34-PE-Cy7 (clone 4H11), CD43-PE or -FITC (clone 1G10), CD73-PE (clone AD2), CD184-APC (clone 12G5), CD45-PE (clone HI30), CD14-PE Cy7 (clone MφP9), CD15-BV421 (W6D3), CD66b-FITC (clone G10F5). All antibodies were purchased from BD Biosciences, but CD15 and CD66b were obtained from BioLegend. For cell cycle analysis, Click-iT EdU Alexa Fluor 488 kit (Life Technologies) was used following manufacturer's instructions.

[3] = tested on: undifferentiated USB1 mutant cells; assay: 3′ end sequencing of miR-125a-5p in undifferentiated USB1 mutant cells; settings: RG7834 1 μM, FIG. 4B
Procedure: 3′ end library preparation and analysis: 3′ end libraries were prepared as previously described (23, 41). Briefly, 30 ng of DNA-free rRNA-depleted RNA was treated with Antarctic Phosphatase (NEB), and two RNA appendices containing a unique barcode were ligated to equal amount of the input RNA using T4 RNA Ligase I (NEB). Reactions were cleaned up using RNA clean & concentrator kit (Zymo Research) and cDNA was prepared using an RNA appendix-specific primer and Superscript III RT (Invitrogen). cDNA was used as a template for […] using a miRNA-specific reverse primer containing a barcode, a universal primer and Phusion HF DNA polymerase (NEB). RACE products were separated on a 1% Agarose TAE gel, 100-180 bp DNA fragments were excised and DNA was eluted. Illumina-compatible libraries were prepared by amplifying RACE product using Illumina primers, and sequenced on a HiSeq lane (Illumina) using the 2×150 kit. Libraries were demultiplexed and unique reads aligning to the exact miRNA sequence were quantified. miRNA 3′ ends were obtained from miRbase v22.

[4] = tested on: USB1 mutant cells; assay: miRNA levels by qRT-PCR in USB1 mutant cells; settings: normalized to 5s rRNA; RG7834 (104) vs DMSO; FIG. 4A
[5] = tested on: USB1 c.531delA CD34+/CD45+ cells; assay: Flow cytometry of hematopoietic CD34+/CD45+ progenitor cells; settings: RG7834 0.5 μM; FIG. 10B
Procedure: as §1

SMILES: COCCCOc1cc2c(cc1OC)-c1cc(=O)c(C(=O)O)cn1[C@H](C(C)C)C2 [RG7834]
- colony-formation potential in USB1 mutants [1]: rescued
- neutrophil formation in USB1 mutant cells [2]: improved
- non-adenylated form of miR-125a-5p [3]: increase
- oligoadenylated miR-125a-5p [3]: decrease
- levels of miRNAs that were reduced in USB1 mutant cells [4]: rescued
- hematopoietic CD34+/CD45+ progenitor cells [5]: increase
